Experimental data from the supplement of paper PMC13207355.

What was measured:
Settings in all cases: exposure time: 72 h
[1] = test system: E28 (patient-derived glioblastoma stem cells of classical subtype); test: surviving fraction (nuclei count normalised to DMSO); higher = more cells surviving (less toxic)
[2] = test system: FT3469 (normal neural stem cell line); test: as above
[3] = test system: E34 (patient-derived glioblastoma stem cells of proneural subtype); test: as above
[4] = test system: E21 (patient-derived glioblastoma stem cells of mesenchymal subtype); test: as above
[5] = test system: E57 (patient-derived glioblastoma stem cells of mesenchymal subtype); test: as above
[6] = test system: E31 (patient-derived glioblastoma stem cells of proneural subtype); test: as above
[7] = test system: E13 (patient-derived glioblastoma stem cells of classical subtype); test: as above
[8] = test system: E28; test: phenotypic distance (Euclidean, principal components) from DMSO controls (arbitrary units); higher = stronger morphological change
[9] = test system: FT3469; test: as above
[10] = test system: E34; test: as above
[11] = test system: E21; test: as above
[12] = test system: E57; test: as above
[13] = test system: E31; test: as above
[14] = test system: E13; test: as above
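Throughout, for phenotypic distance (Euclidean, principal components) from DMSO controls: cell Painting imaging in 384-well plates, CellProfiler features reduced to at least 20 principal components, Euclidean distance versus same-plate DMSO vehicle wells (0.1% v/v), median over six images per well.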
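Throughout, for surviving fraction (nuclei count normalised to DMSO): nuclei counted by high-content imaging of Hoechst-stained cells in laminin-coated 384-well plates, relative to 0.1% DMSO vehicle wells, with staurosporine as cell-death control.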

Oc1ccc(OCc2ccccc2)cc1 [Monobenzone]
Settings | phenotypic distance | surviving fraction
[1], 4.1 nM | – | 1.09
[1], 12.3 nM | – | 1.17
[1], 37 nM | – | 1.12
[1], 111.1 nM | – | 1.02
[1], 333.3 nM | – | 1.04
[1], 1000 nM | – | 1.04
[1], 3000 nM | – | 0.875
[2], 4.1 nM | – | 1.35
[2], 12.3 nM | – | 1.12
[2], 37 nM | – | 1.14
[2], 111.1 nM | – | 0.963
[2], 333.3 nM | – | 1.02
[2], 1000 nM | – | 0.999
[2], 3000 nM | – | 0.689
[3], 4.1 nM | – | 1.13
[3], 12.3 nM | – | 0.972
[3], 37 nM | – | 0.966
[3], 111.1 nM | – | 1.13
[3], 333.3 nM | – | 0.984
[3], 1000 nM | – | 1.12
[3], 3000 nM | – | 1.07
[4], 4.1 nM | – | 1.01
[4], 12.3 nM | – | 1.02
[4], 37 nM | – | 0.985
[4], 111.1 nM | – | 0.974
[4], 333.3 nM | – | 1.01
[4], 1000 nM | – | 0.951
[4], 3000 nM | – | 0.932
[5], 4.1 nM | – | 1.07
[5], 12.3 nM | – | 1.06
[5], 37 nM | – | 1.14
[5], 111.1 nM | – | 1.05
[5], 333.3 nM | – | 0.979
[5], 1000 nM | – | 0.963
[5], 3000 nM | – | 0.842
[6], 4.1 nM | – | 1.17
[6], 12.3 nM | – | 1.1
[6], 37 nM | – | 1.24
[6], 111.1 nM | – | 1.19
[6], 333.3 nM | – | 1.04
[6], 1000 nM | – | 1.06
[6], 3000 nM | – | 0.603
[7], 4.1 nM | – | 1.02
[7], 12.3 nM | – | 1.11
[7], 37 nM | – | 0.916
[7], 111.1 nM | – | 1.04
[7], 333.3 nM | – | 0.962
[7], 1000 nM | – | 1.06
[7], 3000 nM | – | 0.738
[8], 4.1 nM | 0.962 | –
[8], 12.3 nM | 0.487 | –
[8], 37 nM | 0.802 | –
[8], 111.1 nM | 0.466 | –
[8], 333.3 nM | 0.474 | –
[8], 1000 nM | 0.692 | –
[8], 3000 nM | 1.42 | –
[9], 4.1 nM | 1.23 | –
[9], 12.3 nM | 0.456 | –
[9], 37 nM | 0.649 | –
[9], 111.1 nM | 0.576 | –
[9], 333.3 nM | 1.04 | –
[9], 1000 nM | 0.884 | –
[9], 3000 nM | 1.07 | –
[10], 4.1 nM | 0.726 | –
[10], 12.3 nM | 0.858 | –
[10], 37 nM | 0.945 | –
[10], 111.1 nM | 0.661 | –
[10], 333.3 nM | 0.606 | –
[10], 1000 nM | 0.28 | –
[10], 3000 nM | 0.624 | –
[11], 4.1 nM | 0.533 | –
[11], 12.3 nM | 0.297 | –
[11], 37 nM | 0.463 | –
[11], 111.1 nM | 0.324 | –
[11], 333.3 nM | 0.511 | –
[11], 1000 nM | 0.562 | –
[11], 3000 nM | 1.35 | –
[12], 4.1 nM | 0.522 | –
[12], 12.3 nM | 0.58 | –
[12], 37 nM | 1.19 | –
[12], 111.1 nM | 1.86 | –
[12], 333.3 nM | 0.673 | –
[12], 1000 nM | 0.736 | –
[12], 3000 nM | 3.91 | –
[13], 4.1 nM | 0.6 | –
[13], 12.3 nM | 0.685 | –
[13], 37 nM | 0.704 | –
[13], 111.1 nM | 0.686 | –
[13], 333.3 nM | 0.51 | –
[13], 1000 nM | 0.575 | –
[13], 3000 nM | 1.87 | –
[14], 4.1 nM | 0.73 | –
[14], 12.3 nM | 0.686 | –
[14], 37 nM | 0.829 | –
[14], 111.1 nM | 0.608 | –
[14], 333.3 nM | 0.563 | –
[14], 1000 nM | 0.694 | –
[14], 3000 nM | 1.62 | –

CNc1ccc2oc(C[C@H]3O[C@@]4(CC[C@H]3C)O[C@H]([C@H](C)C(=O)c3ccc[nH]3)[C@H](C)C[C@H]4C)nc2c1C(=O)O [Calcimycin]
Settings | phenotypic distance | surviving fraction
[1], 4.1 nM | – | 1.07
[1], 12.3 nM | – | 1.19
[1], 37 nM | – | 0.999
[1], 111.1 nM | – | 0.82
[1], 333.3 nM | – | 0.391
[1], 1000 nM | – | 0.0896
[1], 3000 nM | – | 0.0448
[2], 4.1 nM | – | 1.05
[2], 12.3 nM | – | 0.987
[2], 37 nM | – | 0.999
[2], 111.1 nM | – | 0.849
[2], 333.3 nM | – | 0.578
[2], 1000 nM | – | 0.25
[2], 3000 nM | – | 0.118
[3], 4.1 nM | – | 0.804
[3], 12.3 nM | – | 0.991
[3], 37 nM | – | 0.946
[3], 111.1 nM | – | 0.787
[3], 333.3 nM | – | 0.467
[3], 1000 nM | – | 0.381
[3], 3000 nM | – | 0.143
[4], 4.1 nM | – | 0.98
[4], 12.3 nM | – | 0.993
[4], 37 nM | – | 0.951
[4], 111.1 nM | – | 0.887
[4], 333.3 nM | – | 0.438
[4], 1000 nM | – | 0.0684
[4], 3000 nM | – | 0.00892
[5], 4.1 nM | – | 1.07
[5], 12.3 nM | – | 0.989
[5], 37 nM | – | 0.871
[5], 111.1 nM | – | 0.561
[5], 333.3 nM | – | 0.201
[5], 1000 nM | – | 0.0743
[5], 3000 nM | – | 0.0336
[6], 4.1 nM | – | 0.918
[6], 12.3 nM | – | 0.898
[6], 37 nM | – | 1
[6], 111.1 nM | – | 0.786
[6], 333.3 nM | – | 0.259
[6], 1000 nM | – | 0.00976
[6], 3000 nM | – | 0.00976
[7], 4.1 nM | – | 0.894
[7], 12.3 nM | – | 0.814
[7], 37 nM | – | 0.678
[7], 111.1 nM | – | 0.576
[7], 333.3 nM | – | 0.266
[7], 1000 nM | – | 0.11
[7], 3000 nM | – | 0.061
[8], 4.1 nM | 0.698 | –
[8], 12.3 nM | 0.777 | –
[8], 37 nM | 0.856 | –
[8], 111.1 nM | 1.27 | –
[8], 333.3 nM | 2.95 | –
[8], 1000 nM | 5.6 | –
[8], 3000 nM | 6.55 | –
[9], 4.1 nM | 1.09 | –
[9], 12.3 nM | 0.726 | –
[9], 37 nM | 1.32 | –
[9], 111.1 nM | 1.82 | –
[9], 333.3 nM | 3.73 | –
[9], 1000 nM | 6.31 | –
[9], 3000 nM | 5.79 | –
[10], 4.1 nM | 1.43 | –
[10], 12.3 nM | 1.06 | –
[10], 37 nM | 1.29 | –
[10], 111.1 nM | 1.9 | –
[10], 333.3 nM | 5.09 | –
[10], 1000 nM | 6.74 | –
[10], 3000 nM | 8.56 | –
[11], 4.1 nM | 0.571 | –
[11], 12.3 nM | 0.699 | –
[11], 37 nM | 0.538 | –
[11], 111.1 nM | 1.96 | –
[11], 333.3 nM | 7.08 | –
[11], 1000 nM | 8.73 | –
[11], 3000 nM | 12.7 | –
[12], 4.1 nM | 1.32 | –
[12], 12.3 nM | 0.365 | –
[12], 37 nM | 1.3 | –
[12], 111.1 nM | 3.84 | –
[12], 333.3 nM | 7.84 | –
[12], 1000 nM | 9.39 | –
[12], 3000 nM | 9.11 | –
[13], 4.1 nM | 0.62 | –
[13], 12.3 nM | 0.642 | –
[13], 37 nM | 0.72 | –
[13], 111.1 nM | 2.33 | –
[13], 333.3 nM | 7.91 | –
[13], 1000 nM | 11 | –
[13], 3000 nM | 10.4 | –
[14], 4.1 nM | 1 | –
[14], 12.3 nM | 0.71 | –
[14], 37 nM | 1.46 | –
[14], 111.1 nM | 3.31 | –
[14], 333.3 nM | 6.79 | –
[14], 1000 nM | 7.97 | –
[14], 3000 nM | 8.33 | –
